How the values were obtained:
[1] = test system: DU4475 breast cancer cells; experiment: Intratibial DU4475 tumor-induced osteolysis; assay type: in vivo, mice; settings: treatment began 3 days post tumor cell injection
Source text: All procedures involving mice and experimental protocols were approved by the Institutional Animal Care and Use Committee (IACUC) of the University of Utah. The RonTK−/− mice which reside on the FVB background, were crossed with NOD.SCID mice for an immune-compromised mouse model. As a control, wild-type FVB mice were also crossed with NOD.SCID mice. The STK−/− mice, which are on a C57BL/6 background, were compared to wild-type C57BL/6 mice as controls. Mice for all experiments were 6 to 8 weeks of age. For intratibial injections, 1×10^5 (PyMTor DU4475) or 3×10^5 (MDA-MB-231) tumor cells were resuspended in 10 μL matrigel and injected into the right tibia of anesthetized female FVB (PyMT) or NOD.SCID mice carrying various alleles of RON. Osteolysis was assessed by X-ray radiography. Dissected hindlimbs from mice sacrificed at the final time point in each experiment were placed in the Kodak In-vivo Multispectral Imaging System FX and exposed to X-ray radiography at 35 kV for 100 sec. Excess tumor tissue was removed from the bones prior to X-ray. Osteolytic lesions were quantified using Image J software (NCBI). All images were compared to the contralateral leg as an internal control.
For in vivo experiments, the OSI-296 inhibitor was dissolved in 40% Trappsol with 0.01 M HCl, and mice were treated at a concentration of 200 mg/kg daily by oral gavage. […]

[2] = Human plasma BSAP levels, Phase I patients; assay type: in vivo; settings: change compared to baseline
Source text: All samples were de-identified and the experiments were approved by the University of Utah Institutional Review Board. Plasma samples were submitted to ARUP for clinical testing of CTX. For BSAP, the Human Bone Panel I capture plate with the Human Alkaline Phosphatase detection kit was utilized (Meso Scale Discovery, Rockville, Md.; […]-2) to measure BSAP levels in undiluted plasma samples per the manufacturer's protocol. ASLAN002 is currently in Phase I testing as an anti-cancer agent (NCT01721148). Regardless of cancer diagnosis, and even in the absence of bone metastasis, RON inhibition might affect normal bone turnover, especially in postmenopausal women due to their high rate of bone loss. […] Shown in FIG. 15A is quantification of the percent change in plasma CTX levels (compared to baseline prior to drug treatment) in blood plasma of patients receiving ASLAN002 in the Phase I clinical trial. […] None of the patients analyzed were treated concurrently with anti-osteoporotic agents. […] Shown in FIG. 15B is quantification of the percent change in BSAP levels (compared to baseline) in blood plasma of patients receiving ASLAN002. […] Note that these patients were not selected based on a diagnosis of bone metastasis; rather, markers of bone turnover in patients with various cancer diagnoses who participated in the Phase I trial of ASLAN002 were simply assessed.

[3] = test system: c-Src; experiment: Western blot of osteoclast lysates, phospho-Src; assay type: cell-based, mice; settings: WT osteoclasts with MSP
Description: (§1) Cells were serum starved (0.5% FBS) for 3 hours prior to lysate collection. Inhibitors were added 1 hour prior to lysis and MSP was added 15 min prior to lysis when indicated. Cells were washed with 1×PBS and harvested in lysis buffer (25 mM Tris-HCl, pH 7.5, 0.42 M NaCl, 1.5 mM MgCl2, 0.5 mM EDTA, 1 mM DTT, 25% sucrose, and 0.1% Triton X-100) plus 100× protease arrest (Bioscience, Bozeman, Mont.) and 100× orthovanadate. Primary antibodies used for immunoblotting include: anti-MSP (Santa Cruz, sc-6090, Dallas, Tex.) at a 1:250 dilution, anti-pan Akt (Cell Signaling, #4691S, Beverly, Mass.) at a 1:1000 dilution, anti-pan Erk (Cell Signaling, #4695, Beverly, Mass.) at a 1:1000 dilution, anti-phospho Akt (Cell Signaling, #9271 L, Beverly, Mass.) at a 1:500 dilution, anti-phospho Erk (Cell Signaling, #4370S, Beverly, Mass.) at a 1:500 dilution, anti-Src (Cell Signaling, #2110, Beverly, Mass.) at a 1:500 dilution, and anti-phospho Src (Y416) (Cell Signaling, #2113, Beverly, Mass.) at a 1:500 dilution. The secondary antibodies used were HRP-conjugated anti-goat IgG (Santa Cruz, Dallas, Tex.) and anti-rabbit IgG (Santa Cruz, Dallas, Tex.). Chemiluminescent signals were detected using Immun-Star HRP (BioRad, Hercules, Calif.).

[4] = test system: AKT; experiment: Western blot of osteoclast lysates, phospho-AKT; assay type: cell-based, mice; settings: osteoclasts
Description: as §1

[5] = target: RON (Homo sapiens, UniProt Q04912); settings: from the cited IC50 values; cited from earlier work
Chain of RON (Q04912 25-1400): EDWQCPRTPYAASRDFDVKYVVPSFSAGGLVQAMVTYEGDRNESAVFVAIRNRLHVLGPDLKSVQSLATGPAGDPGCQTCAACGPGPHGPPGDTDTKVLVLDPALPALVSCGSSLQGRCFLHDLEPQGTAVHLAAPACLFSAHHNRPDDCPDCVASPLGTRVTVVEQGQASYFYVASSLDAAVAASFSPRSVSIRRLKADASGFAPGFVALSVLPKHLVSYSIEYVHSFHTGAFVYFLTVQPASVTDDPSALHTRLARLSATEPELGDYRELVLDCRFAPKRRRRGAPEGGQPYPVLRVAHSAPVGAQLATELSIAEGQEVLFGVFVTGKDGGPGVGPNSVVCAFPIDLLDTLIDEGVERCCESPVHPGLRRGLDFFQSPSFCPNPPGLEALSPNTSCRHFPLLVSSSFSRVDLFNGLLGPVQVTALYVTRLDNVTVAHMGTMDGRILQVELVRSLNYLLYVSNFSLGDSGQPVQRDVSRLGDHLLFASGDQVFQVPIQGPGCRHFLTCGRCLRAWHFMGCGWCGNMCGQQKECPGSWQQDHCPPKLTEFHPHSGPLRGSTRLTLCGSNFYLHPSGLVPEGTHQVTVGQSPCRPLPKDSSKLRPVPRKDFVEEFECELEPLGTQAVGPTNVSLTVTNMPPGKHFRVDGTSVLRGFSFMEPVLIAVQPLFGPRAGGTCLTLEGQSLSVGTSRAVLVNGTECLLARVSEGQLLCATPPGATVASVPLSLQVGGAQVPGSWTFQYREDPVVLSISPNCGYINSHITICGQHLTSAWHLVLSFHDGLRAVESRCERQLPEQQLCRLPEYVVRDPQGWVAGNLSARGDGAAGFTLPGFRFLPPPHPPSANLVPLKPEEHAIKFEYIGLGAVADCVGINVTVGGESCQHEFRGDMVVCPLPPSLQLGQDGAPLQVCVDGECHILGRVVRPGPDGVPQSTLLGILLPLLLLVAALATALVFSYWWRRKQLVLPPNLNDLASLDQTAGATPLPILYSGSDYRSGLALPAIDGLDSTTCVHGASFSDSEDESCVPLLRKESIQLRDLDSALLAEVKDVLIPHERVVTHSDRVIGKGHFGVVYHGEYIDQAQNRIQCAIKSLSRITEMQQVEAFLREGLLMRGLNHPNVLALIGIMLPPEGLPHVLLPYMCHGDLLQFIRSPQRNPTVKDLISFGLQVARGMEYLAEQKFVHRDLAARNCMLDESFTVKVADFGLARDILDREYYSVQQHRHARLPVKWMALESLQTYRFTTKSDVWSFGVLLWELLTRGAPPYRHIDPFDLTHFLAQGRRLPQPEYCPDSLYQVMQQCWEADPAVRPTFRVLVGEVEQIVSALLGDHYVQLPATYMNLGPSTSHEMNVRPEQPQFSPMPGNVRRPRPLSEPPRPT

CCOc1ccn(-c2ccc(F)cc2)c(=O)c1C(=O)Nc1ccc(Oc2ccnc(N)c2Cl)c(F)c1 [ASLAN002]
osteolysis from DU4475 cells [1]: prevented osteolysis
plasma bone-specific alkaline phosphatase (BSAP) levels [2]: increased plasma BSAP
MSP-increased Src phosphorylation [3]: blocked
phosphorylated AKT [4]: decrease in phosphorylated AKT
selectivity between RON and Met [5]: more selective for RON
